Source: patent US20240148821A1, “PHARMACEUTICAL USE OF CYCLIC PEPTIDE COMPOUND” (CHUGAI SEIYAKU KABUSHIKI KAISHA, priority 2021, published 2024)
Bridge positions count the residues as written; N and C are the ends. Square brackets hold non-standard residues; d marks the D form. Peptide text beside a SMILES is read from it. * marks the point of attachment. hPhe(3,5-F2-4-CF3) = N[C@@H](CCc1cc(F)c(C(F)(F)F)c(F)c1)C(=O)O; hPhe(3-Cl-4-CF3) = N[C@@H](CCc1ccc(C(F)(F)F)c(Cl)c1)C(=O)O; NEtPhe(4-CF3) = CCN[C@@H](Cc1ccc(C(F)(F)F)cc1)C(=O)O; NMePhe(4-CF3) = CN[C@@H](Cc1ccc(C(F)(F)F)cc1)C(=O)O; NEtPhe(4-Me) = CCN[C@@H](Cc1ccc(C)cc1)C(=O)O; NMeAbu(4,4,4-F3) = CN[C@@H](CC(F)(F)F)C(=O)O; NMePhe(4-Me) = CN[C@@H](Cc1ccc(C)cc1)C(=O)O; NMeAla(cPent) = CN[C@@H](CC1CCCC1)C(=O)O; NMeGly(cPent) = CN[C@H](C(=O)O)C1CCCC1; Hyp = O=C(O)[C@@H]1C[C@@H](O)CN1; NMeChg = CN[C@H](C(=O)O)C1CCCCC1; NMeI = CC[C@H](C)[C@H](NC)C(=O)O; NMeD = CN[C@@H](CC(=O)O)C(=O)O; NMeL = CN[C@@H](CC(C)C)C(=O)O; Morpholide = C1CN(*)CCO1; NMeA = CN[C@@H](C)C(=O)O; Pyrrolidide = C1CCN(*)C1; Ac5c = NC1(C(=O)O)CCCC1; Aze = O=C(O)[C@@H]1CCN1; Sar = CNCC(=O)O

Columns and labels:
[1] = target: protein-protein interaction between Kras and SOS1 (biotin-tagged human Kras loaded with GDP, His-tagged human SOS1) (Homo sapiens (Human), UniProt P01116, G12D); assay: Protein-protein interaction inhibition between Kras and SOS1 (KrasG12D-SOS PPI) using AlphaScreen; assay type: biochemical; settings: AlphaScreen; biotin-tagged human Kras loaded with GDP, His-tagged human SOS1; read-out: KRAS G12D-SOS PPI IC50;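 further: kras produced in E. coli, Ni-coupled donor beads and streptavidin acceptor beads, excitation 680 nm with emission detected at 520–620 nm via singlet oxygen transfer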
[2] = test system: Human pancreatic cancer cell line AsPC-1 (G12D mutation Kras); assay: AsPC-1 cell growth inhibition (AsPC-1 CGI); assay type: cell-based; settings: read-out: AsPC-1 cell growth inhibition, 50% growth inhibitory concentration (IC50 value); 96 hours, CellTiter-Glo, values classified in ranges
Description: Test compounds were serially dilated with dimethyl sulfoxide, and 200 nL was then dispensed to a U-bottom 96-well plate using Labcyte Echo. […] The cell suspension was dispensed to a. plate containing a test compound at 100 μL per well and incubated at 37° C. in a 5% carbon dioxide gas incubator. 96 hours later, 80 μL of CellTiter-Glo (Promega) was added to each well and fluorescence was measured.

**Q.** With `CC[C@H](C)[C@@H]1NC(=O)[C@H](CC(C)C)N(C)C(=O)C[C@@H](C(=O)N2CCOCC2)N(C)C(=O)[C@H]([C@@H](C)CC)N(C)C(=O)C2(CCCC2)NC(=O)[C@@H]2CCCN2C(=O)[C@H](CCc2ccc(C(F)(F)F)c(Cl)c2)NC(=O)CN(C)C(=O)[C@H](Cc2ccc(C(F)(F)F)cc2)N(CC)C(=O)[C@@H]2CCN2C(=O)[C@H](C)N(C)C1=O` [Compound 1312] ([NMeL]I[NMeA][Aze][NEtPhe(4-CF3)][Sar][hPhe(3-Cl-4-CF3)]P[Ac5c][NMeI][NMeD]-Morpholide; lactam N-11) as the molecule, how does the IC50 [1] read?
**A.** Its IC50 is 0.74 nM.

**Q.** What about the IC50 [2] of the same molecule?
**A.** The IC50 was no more than 20 nM.

**Q.** What does the source list for `CC[C@H](C)[C@@H]1NC(=O)[C@H](CC(C)C)N(C)C(=O)C[C@@H](C(=O)N2CCCC2)N(C)C(=O)[C@H]([C@@H](C)CC)N(C)C(=O)C2(CCCC2)NC(=O)[C@@H]2CCCN2C(=O)[C@H](CCc2ccc(C(F)(F)F)c(Cl)c2)NC(=O)CN(C)C(=O)[C@H](Cc2ccc(C(F)(F)F)cc2)N(CC)C(=O)[C@@H]2CCN2C(=O)[C@H](C)N(C)C1=O` [Compound 1319] ([NMeL]I[NMeA][Aze][NEtPhe(4-CF3)][Sar][hPhe(3-Cl-4-CF3)]P[Ac5c][NMeI][NMeD]-Pyrrolidide; lactam N-11)?
**A.** IC50 [1]: 0.82 nM; IC50 [2]: ≤ 20 nM

**Q.** Which IC50 [1] does the source give for `CC[C@H](C)[C@@H]1NC(=O)[C@H](CC2CCCC2)N(C)C(=O)C[C@@H](C(=O)N2CCCC2)N(C)C(=O)[C@H]([C@@H](C)CC)N(C)C(=O)C2(CCCC2)NC(=O)[C@@H]2CCCN2C(=O)[C@H](CCc2ccc(C(F)(F)F)c(Cl)c2)NC(=O)CN(C)C(=O)[C@H](Cc2ccc(C(F)(F)F)cc2)N(C)C(=O)[C@@H]2CCN2C(=O)[C@H](C)NC1=O` [Compound 1320] ([NMeAla(cPent)]IA[Aze][NMePhe(4-CF3)][Sar][hPhe(3-Cl-4-CF3)]P[Ac5c][NMeI][NMeD]-Pyrrolidide; lactam N-11) here?
**A.** Its IC50 is 1.4 nM.

**Q.** And the IC50 [2]?
**A.** Its IC50 is no more than 20 nM.

**Q.** With `CC[C@H](C)[C@@H]1NC(=O)[C@H](CC(C)C)N(C)C(=O)C[C@@H](C(=O)N2CCOCC2)N(C)C(=O)[C@H]([C@@H](C)CC)N(C)C(=O)C2(CCCC2)NC(=O)[C@@H]2CCCN2C(=O)[C@H](CCc2ccc(C(F)(F)F)c(Cl)c2)NC(=O)CN(C)C(=O)[C@H](Cc2ccc(C)cc2)N(CC)C(=O)[C@@H]2CCN2C(=O)[C@H](C)N(C)C1=O` [Compound 1322] ([NMeL]I[NMeA][Aze][NEtPhe(4-Me)][Sar][hPhe(3-Cl-4-CF3)]P[Ac5c][NMeI][NMeD]-Morpholide; lactam N-11) as the molecule, how does the IC50 [1] read?
**A.** Its IC50 is 0.82 nM.

**Q.** What about the IC50 [2] of the same molecule?
**A.** The IC50 was no more than 20 nM.

**Q.** For `CC[C@H](C)[C@@H]1NC(=O)[C@H](CC(C)C)N(C)C(=O)C[C@@H](C(=O)N2CCCC2)N(C)C(=O)[C@H]([C@@H](C)CC)N(C)C(=O)C2(CCCC2)NC(=O)[C@@H]2CCCN2C(=O)[C@H](CCc2ccc(C(F)(F)F)c(Cl)c2)NC(=O)CN(C)C(=O)[C@H](Cc2ccc(C)cc2)N(CC)C(=O)[C@@H]2CCN2C(=O)[C@H](C)N(C)C1=O` [Compound 1325] ([NMeL]I[NMeA][Aze][NEtPhe(4-Me)][Sar][hPhe(3-Cl-4-CF3)]P[Ac5c][NMeI][NMeD]-Pyrrolidide; lactam N-11), which IC50 [1] is on record?
**A.** Its IC50 is 0.96 nM.

**Q.** What about the IC50 [2] of the same molecule?
**A.** Its IC50 is no more than 20 nM.

**Q.** For `CCO[C@@H]1C[C@H]2C(=O)NC3(CCCC3)C(=O)N(C)[C@@H]([C@@H](C)CC)C(=O)N(C)[C@H](C(=O)N3CCCC3)CC(=O)N(C)[C@@H](CC(C)C)C(=O)N[C@@H]([C@@H](C)CC)C(=O)N(C)[C@@H](C)C(=O)N3CC[C@H]3C(=O)N(C)[C@@H](Cc3ccc(C(F)(F)F)cc3)C(=O)N(C)CC(=O)N[C@@H](CCc3ccc(C(F)(F)F)c(Cl)c3)C(=O)N2C1` [Compound 1335] ([NMeL]I[NMeA][Aze][NMePhe(4-CF3)][Sar][hPhe(3-Cl-4-CF3)][Hyp](Et)[Ac5c][NMeI][NMeD]-Pyrrolidide; lactam N-11), which IC50 [1] is on record?
**A.** Its IC50 is 0.49 nM.

**Q.** And the IC50 [2]?
**A.** Its IC50 is no more than 20 nM.

**Q.** For `CC[C@H](C)[C@@H]1NC(=O)[C@H](CC(C)C)N(C)C(=O)C[C@@H](C(=O)N2CCOCC2)N(C)C(=O)[C@H](C2CCCC2)N(C)C(=O)C2(CCCC2)NC(=O)[C@@H]2CCCN2C(=O)[C@H](CCc2cc(F)c(C(F)(F)F)c(F)c2)NC(=O)CN(C)C(=O)[C@H](C2CCCC2)N(C)C(=O)[C@@H]2CCN2C(=O)[C@H](C)N(C)C1=O` [Compound 1336] ([NMeL]I[NMeA][Aze][NMeGly(cPent)][Sar][hPhe(3,5-F2-4-CF3)]P[Ac5c][NMeGly(cPent)][NMeD]-Morpholide; lactam N-11), which IC50 [1] is on record?
**A.** Its IC50 is 0.66 nM.

**Q.** And the IC50 [2]?
**A.** The IC50 was no more than 20 nM.

**Q.** `CCO[C@@H]1C[C@H]2C(=O)NC3(CCCC3)C(=O)N(C)[C@@H](C3CCCCC3)C(=O)N(C)[C@H](C(=O)N3CCCC3)CC(=O)N(C)[C@@H](CC(F)(F)F)C(=O)N[C@@H]([C@@H](C)CC)C(=O)N(C)CC(=O)N(C)CC(=O)N(C)[C@@H](Cc3ccc(C)cc3)C(=O)N(C)CC(=O)N[C@@H](CCc3ccc(C(F)(F)F)c(Cl)c3)C(=O)N2C1` [Compound 1339] ([NMeAbu(4,4,4-F3)]I[Sar][Sar][NMePhe(4-Me)][Sar][hPhe(3-Cl-4-CF3)][Hyp](Et)[Ac5c][NMeChg][NMeD]-Pyrrolidide; lactam N-11) was tested. Which IC50 [1] did it give?
**A.** The IC50 was 0.57 nM.

**Q.** And the IC50 [2]?
**A.** Its IC50 is no more than 20 nM.
